Results on 7 compounds are retold here after patent US8796317B2, “Use of 7-nitro-2,1,3-benzoxadiazole derivatives for anticancer therapy” (Universita Degli Studi di Roma “Tor Vergata”, priority 2003, dated 2014).

In data set [1] the target is T1, GST P1-1 (Homo sapiens, UniProt P09211).
T1 construct: made in house; host or cells: Escherichia coli
Briefly: Inhibition of GST activity (CDNB/GSH spectrophotometric assay). Conditions: for IC50: 25° C., pH 6.5, 1 mM glutathione, 1 mM CDNB. It is filed as biochemical. Here is the method:
(§1) GSTA1-1, M2-2 and P1-1, expressed in Escherichia coli, were purified by using a chromatographic passage on an affinity resin capable of selectively retaining the GST (J. Biol. Chem. 270, (1995), 1249-1253).
(§2) GST activity was tested at 25° C. with a 0.1 M potassium phosphate buffer, at pH 6.5, in the presence of the substrates, i.e. of the glutathione (Sigma-Aldrich, Fine Chemicals) in a concentration of 1 mM, and of 1-chloro-2,4-dinitrobenzene (CDNB) (Sigma-Aldrich, Fine Chemicals) 1 mM (Methods Enzymol. 77, 1981, 398-405).
(§3) Enzymatic activity was assessed spectrophotometrically at 340 nm, a wavelength at which it absorbs the reaction product S-(2,4-dinitrobenzene)glutathione (GS-DNB) (6=9.6 mM^−1 cm^−1).

Data set [2] deals with T2, GST A1-1 (Homo sapiens, UniProt P08263).
T2 construct: made in house; host or cells: Escherichia coli
T2 sequence (P08263 1-222): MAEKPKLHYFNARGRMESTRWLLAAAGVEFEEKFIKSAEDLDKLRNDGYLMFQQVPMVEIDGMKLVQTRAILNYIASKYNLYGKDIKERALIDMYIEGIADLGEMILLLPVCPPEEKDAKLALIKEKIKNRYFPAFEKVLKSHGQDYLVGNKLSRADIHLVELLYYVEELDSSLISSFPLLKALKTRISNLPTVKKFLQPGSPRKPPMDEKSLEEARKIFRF
The data set is described as above. It is filed as biochemical. Conditions: 25° C., pH 6.5, 1 mM glutathione, 1 mM CDNB. As to the method: (§4) These compounds were tested as inhibitors of the activity of the isoenzymes GSTP1-1, GSTA1-1 and GSTM2-2 belonging to the most representative GST classes: the Pi, Mu and Alpha classes.
as §1, §2, §3

The target of data set [3] is T3, GST M2-2 (Homo sapiens, UniProt P28161).
T3 construct: made in house; host or cells: Escherichia coli
T3 sequence (P28161 1-218): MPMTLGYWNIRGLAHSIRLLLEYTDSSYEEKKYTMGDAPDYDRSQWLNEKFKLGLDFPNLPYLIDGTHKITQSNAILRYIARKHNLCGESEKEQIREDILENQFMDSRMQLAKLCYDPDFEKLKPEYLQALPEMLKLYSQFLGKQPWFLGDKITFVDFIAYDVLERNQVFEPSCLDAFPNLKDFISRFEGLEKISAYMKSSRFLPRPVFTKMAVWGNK
The data set is described as above. It is filed as biochemical. As to conditions: 25° C., pH 6.5, 1 mM glutathione, 1 mM CDNB. As to the method:
as §4, §1, §2, §3

Data set [4] has as its system CEM1.3 (human T-lymphoblastic leukaemia). The experiment in a line: SRB cell growth test. It is filed as cell-based. Conditions: CEM13, read-out: Activity trials on cell lines - IC50 (50% inhibition of cell growth), CEM1.3, 48 hours. Here is the method: (§5) Four cancer cell lines were used for testing the anticancer activity of the derivatives of 7-nitro-2,1,3-benzoxadiazole: K562 (human myeloid leukaemia), HepG2 (human hepatic carcinoma), CEM1.3 (human T-lymphoblastic leukaemia) and GLC-4 (human small cell lung carcinoma).
(§6) The human cancer cell lines were maintained in RPMI 1640 (containing L-glutamine 2 mM and 0.1 g/l of penicillin-G/streptomycin sulphate) enriched with 5% foetal bovine serum (FBS), at 37° C., 5% CO2 and 98% humidity.
(§7) The cells were placed in 96-well plates at a density of 15,000 cells per well, in a culture medium volume of 100 μl. After 24 hours, each of the 7-nitro-2,1,3-benzoxadiazole derivatives to be assayed, at the required concentration, was added to the culture medium. At the same time, some control trials were arranged by adding to the wells the solvent in which the compound was dissolved (% v/v of DMSO in PBS). All measurements were carried out in quadruplicate.
(§8) The cells were incubated for 48 hours at 37° C., at 5% CO2.
(§9) In order to obtain a dose-response profile for each derivative of 7-nitro-2,1,3-benzoxadiazole under study, an evaluation process based on the method described by Shekan et al (J. Natl. Cancer. Inst. 82, (1990), 1107-1112) was used.
(§10) After incubation, the percentage cell growth was evaluated by an insitu cell fixation procedure, followed by an SRB test using a colouring procedure with sulphorodamine B capable of specifically binding to proteins. The coloured product was then solubilised and quantified spectrophotometrically in order to determine the growth of the cells treated with the compound under study with respect to the ones treated with the solvent only.

The subject of data set [5] is GLC-4 (human small cell lung carcinoma). Briefly: SRB cell growth test. It is filed as cell-based. Conditions: GLC4, read-out: Activity trials on cell lines - IC50 (50% inhibition of cell growth), GLC-4, 48 hours. As to the method: as §5, §6, §7, §8, §9, §10
The subject of data set [6] is HepG2 (human hepatic carcinoma). The experiment in a line: SRB cell growth test. It is filed as cell-based. As to conditions: HepG2, read-out: Activity trials on cell lines - IC50 (50% inhibition of cell growth), HepG2, 48 hours. Here is the method: as §5, §6, §7, §8, §9, §10
Data set [7] has as its system K562 (human myeloid leukaemia). The experiment in a line: SRB cell growth test. It is filed as cell-based. As to conditions: K562, read-out: Activity trials on cell lines - IC50 (50% inhibition of cell growth), K562, 48 hours. As to the method: as §5, §6, §7, §8, §9, §10
In data set [8] the test system is CEMVBL100, leukaemia line resistant to vinblastine (hyperexpressing P-glycoprotein). The experiment in a line: Cytotoxicity of vinblastine on resistant cells with and without the derivative (SRB test). It is filed as cell-based. Conditions: CEM/VBL100, 48 h. As to the method:
In cancer cells the resistance to many anticancer drugs is often associated with a high expression of P-glycoprotein, a membrane protein belonging to the overall family of ABC transporters (ATP-binding cassette).
The cells were placed in 96-well strips at a density of 15,000 cells per well, in a volume of culture medium of 100 μl. After 24 hours, a suitable concentration of between 25 nM and 1000 nM of vinblastine was added to the culture medium. […] At the same time, some control trials were arranged by adding to the wells the solvent in which the compound was dissolved (% v/v of DMSO in PBS). All measurements were carried out in quadruplicate. After 48 hours of incubation, a dosage-response profile was obtained by using the SRB test (J. Natl. Cancer. Inst. 82, (1990), 1107-1112, loc. cit.).

The subject of data set [9] is caspase-3 in K562 cells. Briefly: Caspase-3 activation (Ac-DEVD-AFC) in cell lysates. It is filed as cell-based, human. Conditions: K562, 10 μM, after 24 h. Here is the method:
Pellets of cells at different times of incubation with 7-nitro-benzofurazan derivative No. 2 (10 μM and 2 μM with K562 and CEM1.3 respectively), were resuspended with lysis buffer (100 mM Hepes, pH 7.6, 0.1% Chaps, 1 mM EDTA, 1 mM Phenyl-methyl-sulphonyl-fluoride and 10 mM DTT) for 20 min on ice and cells were disrupted by 10-s sonication. Lysates, after centrifugation, were utilized to measure the caspase-3 activity. The substrate utilized was the model fluorescent peptide Ac-DEVD-AFC (Acetyl-Asp-GluVal-Asp-7-amino-4-trifluoromethyl coumarin) which was proteolyzed by caspase-3 resulting in a fluorescence emission at 505 nm (excitation at 400 nm). As control, lysates were incubated 30 min at 30° C. with the caspase inhibitor DEVD-CHO before evaluation of enzyme activity. Caspase activity was expressed as fluorescence change observed per minute per number of cells.

Data set [10] relates to CEM1.3 cells. The experiment in a line: Flow cytometric analysis of apoptosis (Annexin V-FITC / PI). It is filed as cell-based, human. Conditions: CEM1.3, 2 μM. As to the method: (§11) Cells were washed in PBS, and stained with propidium iodide and with the impermeant dye Annexin V-FITC (Bender MedSystems, Vienna, Austria). The stained cells were analysed using a FACScan Flow Cytometer (Becton-Dickinson, CA). Data were recorded and statistically analysed by WinMDI version 2.8 software. Simultaneous staining of cells with Annexin V-FITC and PI allows the discrimination of intact cells, early apoptotic and late apoptotic or necrotic cells.

Data set [11] concerns K562 cells. Described as above. It is filed as cell-based, human. As to conditions: K562, 10 μM. As to the method:
as §11

Data set [12] deals with T4, GST-JNK complex in K562 cells (Homo sapiens, UniProt P09211).
T4 construct: K562 cell lysates were immunoprecipitated with an anti-JNK antybody and used for Western blot analysis; endogenous in cells; host or cells: K562
T4 sequence (P09211 2-210 limits assumed, one chain of several): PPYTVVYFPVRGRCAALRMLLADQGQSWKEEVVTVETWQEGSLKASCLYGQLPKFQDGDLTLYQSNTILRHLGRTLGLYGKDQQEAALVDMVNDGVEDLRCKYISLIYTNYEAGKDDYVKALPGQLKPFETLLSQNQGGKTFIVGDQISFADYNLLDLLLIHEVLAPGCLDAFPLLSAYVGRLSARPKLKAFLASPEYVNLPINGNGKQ
Briefly: Immunoprecipitation with anti-JNK antibody and Western blot. It is filed as cell-based. Conditions: K562 lysates, 10 μM; slightly increases only after 3 h. As to the method:
For the immunoprecipitation analysis, cell pellets were resuspended in lysis buffer, and cells were disrupted by 10-s sonication. Lysates were then centrifuged at 14,000 g for 15 min at 4° C. Proteins were incubated in lysis buffer with anti-JNK antibody for 2 h at 4° C. Immunocomplexes were absorbed with protein A-Sepharose for 30 min at 4° C. After three washes with lysis buffer, immune pellets were boiled in SDS sample buffer. Proteins were loaded on 15% SDS-polyacrylamide gel and transferred to nitrocellulose. GST, JNK and phospho-JNK were detected by specific antibody.
To assess if cell treatment with derivative No. 2 affects the amount of GST-JNK complex, K562 cell lysates were immunoprecipitated with an anti-JNK antybody and used for Western blot analysis.

Data set [13] has as its system K562, HepG2, CEM1.3 and GLC-4 cancer cell lines. The experiment in a line: Cytotoxicity, viability and cell penetration on all the tested cancer cell lines. It is filed as cell-based, human. As to the method:
as §5, §6
The cells were placed in 96-well plates at a density of 15,000 cells per well, in a culture medium volume of 100 μl. After 24 hours, each of the 7-nitro-2,1,3-benzoxadiazole derivatives to be assayed, at the required concentration, was added to the culture medium. At the same time, some control trials were arranged by adding to the wells the solvent in which the compound was dissolved (% v/v of DMSO in PBS). All measurements were carried out in quadruplicate. […]
as §10

Values joined by “and” are separate entries in the source; they are usually repeats but may differ in a detail not shown here. Identical values can stand only once. Some results are limits rather than exact numbers.

T1 sequence (P09211 2-210 limits assumed): as the sequence (P09211 2-210 limits assumed, one chain of several) above

On to `O=[N+]([O-])c1ccc(Sc2ncc[nH]2)c2nonc12` [(3), 2-(7-nitro-2,1,3-benzoxadiazol-4-ylthio)imidazole], for which the IC50 in data set [1] was found to be 6.3 µM; in data set [2], 11 µM; in [3], 10 nM; in data set [4] it was 3900 nM; in data set [5], 10 µM; in data set [6], 16 µM. In addition, the IC50 in data set [7] was determined as 8.8 µM.

In the case of `O=[N+]([O-])c1ccc(SCCCCO)c2nonc12` [(1), 4-(7-nitro-2,1,3-benzoxadiazol-4-ylthio)butanol], the IC50 in data set [1] was 2 µM; in [2], 56 µM; in data set [3] it was 30 nM; in data set [4], 200 nM; in data set [5], 3.2 µM; in [6], 3.2 µM. Also, the half-inhibitory concentration (IC50) in data set [7] amounted to 2.2 µM.

As to `CC[C@]1(O)C[C@@H]2CN(CCc3c([nH]c4ccccc34)[C@@](C(=O)OC)(c3cc4c(cc3OC)N(C)[C@H]3[C@@](O)(C(=O)OC)[C@H](OC(C)=O)[C@]5(CC)C=CCN6CC[C@]43[C@@H]65)C2)C1` [vinblastine], the IC50 in data set [8] (CEM VBL100, 7-nitro-2,1,3-benzoxadiazole derivative absent) was found to be 340 nM; in data set [8] (CEM VBL100, with 0.5 μM 6-(7-nitro-2,1,3-benzoxadiazol-4-ylthio)hexanol), 50 nM.

With `O=[N+]([O-])c1ccc(Sc2ccc(O)cc2)c2nonc12` [(4), 4-(7-nitro-2,1,3-benzoxadiazol-4-ylthio)phenol], the IC50 in data set [1] is 0.7 µM; in [2], 6.5 µM; in data set [3], 30 nM; in [4] it was 2400 nM; in data set [5], 7.5 µM; in [6] it was 16.3 µM. Moreover, the half-inhibitory concentration (IC50) in data set [7] was 6.4 µM.

As to `O=[N+]([O-])c1ccc(SCCCCCCO)c2nonc12` [(2), 6-(7-nitro-2,1,3-benzoxadiazol-4-ylthio)hexanol], the IC50 in data set [2] worked out at 25 µM; in data set [3] it was 10 nM; in data set [4], 100 nM; in data set [5], 1.4 µM; in [6] it was 2.9 µM; in data set [7], 0.8 µM. Moreover, the caspase-3 activity entry in [9] is on record as “strong increase of caspase-3”. The apoptosis in data set [10] (12 h treatment) is listed as 34%; in data set [10] (after 24 h), 47%; in [11] (12 h treatment), 30%; in data set [11] (after 24 h), 41%. Besides, in data set [12], the “amount of GSTP1-1 that co-precipitates with JNK” value was “rapidly decreased”.

As to `O=[N+]([O-])c1ccc(NCCCCCCO)c2nonc12` [(6), 6-(7-nitro-2,1,3-benzoxadiazol-4-ylamino)hexanol], the “inhibition activity with regard to the enzymatic isoform GSTP1-1 (in words)” value in data set [1] is given as “no inhibition activity”. The IC50 is above 100 µM in data set [2]; ~2000 nM and 1800 nM in data set [3]; above 50000 nM in data set [4]; above 50 µM in data set [5]; above 50 µM in [6]; above 50 µM in [7]. The “viability of all the tested cancer cell lines” value in data set [13] (48 hours of incubation with 50 μM) was “still viable”. In addition, the “penetration into the cells (intracellular fluorescence)” value in data set [13] (after 6 hours of incubation, various concentrations) was “easily penetrate the cells”.

As to `O=C(O)CCSc1ccc([N+](=O)[O-])c2nonc12` [(5), 3-(7-nitro-2,1,3-benzoxadiazol-4-ylthio)propionic acid], the 50% inhibitory concentration (IC50) in [1] is 5.74 µM; in data set [2], 66 µM; in data set [3], 310 nM; in [4] it was 6500 nM; in data set [5], 16.5 µM; in [6], 25 µM. Also, the IC50 in data set [7] came to 38 µM.
